These results are taken from patent US5563142A, “Diaromatic substituted compounds as anti-HIV-1 agents” (The Upjohn Company, priority 1994, dated 1996).

As a reminder, the inhibition is the drop in the measured response relative to a control, in per cent.

One experiment addresses T1, viral reverse transcriptase (Human immunodeficiency virus type 1 group M subtype B, UniProt P04585).
T1 construct: Viral reverse transcriptase is found in extracts from bacterial clones; made in house; host or cells: Escherichia coli (extracts of bacterial clones, by the procedure of Larder et al., EMBO J. 6:3133-3137, 1987)
Kind of experiment: Viral reverse transcriptase inhibition, cell free assay. It is filed as biochemical, human immunodeficiency virus (HIV-1). To be noted: 100 μM; poly rC or poly rG template. The text has this: The utility of the diaromatic substituted piperazines (III), the anti-AIDS piperazines (IV) and the indoles (V) of this invention can be determined by their ability to inhibit viral reverse transcriptase, an enzyme essential for human immunodeficiency virus replication. This enzyme has characteristics which differentiate it from other known cellular polymerases and it is a unique enzyme which is not found in uninfected cells. Viral reverse transcriptase is found in extracts from bacterial clones prepared according to the procedure described in AIDS Virus Reverse Transcriptase defined by high level expression in Escherichia coli, EMBO J. 6:3133-3137 (1987). Inhibition of this enzyme is determined in a cell free assay which measures the level of radioactive precursors incorporated into DNA. Extracts prepared according to the procedure of Science, 1125-1129 (1981) are incubated in a mixture of inhibitor, 20 mM dithiothreitol, 60 mM sodium chloride, 0.05% NP-40, 10 mM magnesium chloride, 50 mM Tris pH 8.3, 10 μM [^35 S]-labeled deoxynuleoside-5'-triphosphate, 10 μg/ml RNA template (poly rC or poly rG) and 5 μg/ml DNA primer (oligo dG or oligo dT) for 30 minutes at 37° C. Incorporation of radio-labeled percursor is determined by spotting aliquots of the reaction mixture on DE81 paper, washing the papers to remove unincorporated percursor, drying and determining counts. The results (IC50 means the concentration, in μM of drug, required to inhibit the reverse transcriptase activity to the extent of 50%) of various assay(s) are combined and reported as % inhibition and IC50 (calculated).
^1 Viral reverse transcriptase is found in extracts from bacterial
clones prepared according to the procedure described by Larder, B.,
Purifoy D., Powell, K. and Darby, G., AIDS virus reverse transcriptase
defined by high level expression in Escherichia coli., EMBO J. 6,
3133-3137 (1987). Inhibition of this enzyme is determined in a cell free
assay which measures the level of radioactive precursors incorporated int
DNA. Extracts prepared according to the procedure of Kleid, D. G., et
al., Science, 1125-1129 (1981) are incubated in a mixture of inhibitor, 2
mM dithiothreitol, 60 mM sodium chloride, 0.05% NP40, 10 mM magnesium
chloride, 50 mM Tris pH 8.3, 10 μM [^35 Slabeled
deoxynucleoside5triphosphate, 10 μg/ml RNA template (poly rC or poly
rG) and 5 μg/ml DNA primer (oligo dG or oligo dT) for 15 minutes at
37°. Incorporation of radio labeled precursor is determined by
harvesting the trichloroacetic acid precipitated reaction mixtures on
glass fiber filters, drying, and determining counts. The results of
various assays are combined and reported as % inhibition at a 100 μM
Regarding `CC(C)Nc1cccnc1N1CCN(C(=O)c2cc3cc(OCC(=O)O)ccc3[nH]2)CC1` [Example 68, 1-[5-(Carboxymethoxy)indolyl-2-carbonyl]-4-[3-(1-methylethylamino)-2-pyridinyl]piperazine], the “RT % INHIBITION (100 μM)” value is 78-95%.

The same experiment, now with this note: read-out: RT % INHIBITION (100 μM), 100 μM; poly rC or poly rG template.
In the case of `CCNc1cccnc1N1CCN(C(=O)c2cccc3c2NCC3)CC1` [Example 130], the inhibition at 100 µM lay in the range of 48 to 59%.

Turning to `CC(C)Nc1cccnc1N1CCN(C(=O)c2cc3cccnc3[nH]2)CC1` [Example 109], the inhibition at 100 µM was in the range of 56 to 82%.

As to `CC(C)Nc1cccnc1N1CCN(C(=O)c2cc3ccc(C=O)cc3[nH]2)CC1` [Example 113], the inhibition at 100 µM is 92 to 96%.

For the compound `CC(C)Nc1cccnc1N1CCN(C(=O)c2cc3ccc4ccccc4c3[nH]2)CC1` [Example 121, 1-[Benz[g]indolyl-2-carbonyl]-4-[3-(1-methylethylamino)-2-pyridinyl]piperazine], the inhibition at 100 µM is 64 to 70%.

Regarding `CCNc1cccnc1N1CCN(C(=O)c2cc3cc(OCc4ccccc4)ccc3[nH]2)CC1` [Example 35, 1-[5-Benzyloxyindolyl-2-carbonyl]-4-[3-(ethylamino)-2-pyridinyl]piperazine], the inhibition at 100 µM lay within 57 to 70%.

Regarding `CCNc1cccnc1N(C)CCCN(C)C(=O)c1cc2ccccc2[nH]1` [Example 111], the inhibition at 100 µM lay in the range of 86 to 92%.

Regarding `CCNc1cccnc1N1CCN(Cc2cc3cc(OC)ccc3[nH]2)CC1` [Example 80], the inhibition at 100 µM lay in the range of 61 to 70%.

As to `CCC(CC)Nc1cccnc1N1CCN(C(=O)c2cc3ccccc3[nH]2)CC1` [Example 100], the inhibition at 100 µM was 81 to 82%.

Regarding `CC(C)(C)Nc1nccnc1N1CCN(C(=O)c2cc3cc(F)ccc3[nH]2)CC1` [Example 51, 1-[5-Fluoroindolyl-2-carbonyl]-4-[3-(1,1-dimethylethylamino)-2-pyrazinyl]piperazine], the inhibition at 100 µM came out at 55%.

With `CC(C)Nc1cccnc1N(C)C1CCN(C(=O)c2cc3ccccc3[nH]2)CC1` [Example 131, 1-(Indolyl-2-carbonyl)-4-(N-methyl-N-(3-(1-methylethylamino)-2-pyridinyl)amino)piperidine], the inhibition at 100 µM fell in the range of 85 to 97%.

On to `O=C(c1cc2ccccc2[nH]1)N1CCN(c2ncccc2NCCF)CC1` [Example 117, 1-[Indolyl-2-carbonyl]-4-[3(2-fluoroethylamino)-2-pyridinyl]piperazine], for which the inhibition at 100 µM was 92%.

On to `CCNc1cccnc1N(C)CCN(C)C(=O)c1cc2ccccc2[nH]1` [Example 123, N,N'-Dimethyl-N-(indolyl-2-carbonyl)-N'-(3-ethylamino-2-pyridyl)ethylenediamine], for which the inhibition at 100 µM lay within 47 to 60%.

Turning to `O=C(c1cc2ccccc2[nH]1)N1CCN(c2nccnc2NC2CC2)CC1` [Example 57, 1-(Indolyl-2-carbonyl)-4-(3-cyclopropylamino-2-pyrazinyl)piperazine], the inhibition at 100 µM is 52 to 65%.

Turning to `CC(C)(C)Nc1ccnnc1N1CCN(C(=O)c2cc3cc(O)ccc3[nH]2)CC1` [Example 120, 1-[5-Hydroxyindolyl-2-carbonyl]-4-[4-(1,1-dimethylethylamino)-2-pyridazinyl]piperazine], the inhibition at 100 µM lay in the range of 87 to 90%.

Consider `CC(C)Nc1cccnc1N1CCN(C(=O)c2cc3c(ccc4ccccc43)[nH]2)CC1` [Example 122, 1-[Benz[e]indolyl-2-carbonyl]-4-[3-(1-methylethylamino)-2-pyridinyl]piperazine], for which the inhibition at 100 µM stood at 84%.

As to `COc1c(C)cc(C(=O)N2CCN(c3ncccc3NC(C)C)CC2)cc1C` [Example 78, 1-[3,5-Dimethyl-4-methoxybenzoyl]-4-[3-(1-methylethylamino)-2-pyridinyl]piperazine], the inhibition at 100 µM was 74%.

Regarding `CC(C)Nc1cccnc1N(C)CCN(C)C(=O)c1cc2cc(F)ccc2[nH]1` [Example 108, N,N'-Dimethyl-N-(5-fluoroindolyl-2-carbonyl)-N'-(3-(1-methylethylamino)-2-pyridyl)ethylenediamine], the inhibition at 100 µM is 77 to 89%.

As for `CC(C)Nc1cccnc1N1CCN(C(=O)c2cccc3c2NCC3)CC1` [Example 129, 1-[2,3-Didehydroindolyl-7-carbonyl]-4-[3-(1-methylethylamino)-2-pyridinyl]piperazine], the inhibition at 100 µM fell in the range of 68 to 84%.

On to `CC(C)Nc1cccnc1N1CCN(C(=O)c2cccc3cc[nH]c23)CC1` [Example 128, 1-[Indolyl-7-carbonyl]-4-[3-(1-methylethylamino)-2-pyridinyl]-piperazine], for which the inhibition at 100 µM was in the range of 89 to 98%.

On to `COc1ccc2[nH]c(C(=O)N(C)CCN(C)c3ncccc3NC(C)C)cc2c1` [Example 107, N,N'-Dimethyl-N-(5-methoxyindolyl-2-carbonyl)-N'-[3-(1-methylethylamino)-2-pyridyl]ethylenediamine], for which the inhibition at 100 µM is 77 to 87%.

As to `CC(C)Nc1cccnc1N1CCN(C(=O)c2cc3cc(Br)ccc3[nH]2)CC1` [Example 93, 1-[5-Bromoindolyl-2-carbonyl]-4-[3-(1-methylethylamino)-2-pyridinyl]piperazine], the inhibition at 100 µM amounted to 87%.

In the case of `CC(C)Nc1cccnc1N1CCN(C(=O)c2cc3cc(OCC(=O)OCc4ccccc4)ccc3[nH]2)CC1` [Example 67, 1-[5-(Benzyloxycarbonylmethoxy)indolyl-2-carbonyl]-4-[3-(1-methylethylamino)-2-pyridinyl]piperazine], the inhibition at 100 µM lay within 60 to 84%.

As to `CC(C)(C)Nc1ccnnc1N1CCN(C(=O)c2cc3cc(OCc4ccccc4)ccc3[nH]2)CC1` [Example 119, 1-[5-Benzyloxyindolyl-2-carbonyl]-4-[4-(1,1-dimethylethylamino)-2-pyridazinyl]piperazine], the inhibition at 100 µM lay within 53 to 58%.

For the compound `CCNc1cccnc1N(C)CCCCCCN(C)C(=O)c1cc2ccccc2[nH]1` [Example 112], the inhibition at 100 µM was in the range of 74 to 82%.

Take `CC(C)Nc1cccnc1OCCOC(=O)c1cc2ccccc2[nH]1` [Example 59, 2-(2-(Indolyl-2-carboxy)ethoxy)-3-(1-methylethylamino)pyridine]: the inhibition at 100 µM was 61 to 75%.
